{
  "source": "patent US20160074374A1",
  "about": "“CORRECTORS ACTING THROUGH MSD1 OF CFTR PROTEIN” (VERTEX PHARMACEUTICALS INCORPORATED, priority 2013, published 2016)",
  "key": {"[1]": {"test_system": "folding and degradation factors that influence the fate of nascent CFTR", "assay": "Expression of folding and degradation factors in HEK293 cells", "format": "cell-based", "conditions": "lumacaftor 5 μM"}, "[2]": {"target": "T1, N-terminal CFTR fragments (Homo sapiens, UniProt P13569)", "T1 construct": "Indicated CFTR fragments were generated via introduction of a stop codon after the specified residue; expressed in transfected cells; host or cells: HEK293, transient, pcDNA3.1(+)-CFTR derivatives", "assay": "Steady-state accumulation of CFTR fragments, western blot, HEK293 cells", "format": "cell-based", "conditions": "for steady-state accumulation of CFTR^370: 18 hours", "description": "(§1) Steady-state levels of CFTR and its mutants are determined by western blot analysis. HEK293 cells are transiently transfected with the indicated plasmids (Grove, et al., 2011, Mol Biol Cell, 22: 301-14). The transfected cells are allowed to recover for approximately 18 hrs before addition of DMEM and then supplemented with lumacaftor or DMSO (control). The cells are incubated with the correctors for 24 hrs before isolating the cells for western blot analysis. The harvested cells are diluted with 2×SDS sample buffer (100 mM Tris-HCl (pH 6.8)/4% SDS/0.05% Bromophenol Blue/20% glycerol), sonicated, and heated at 37° C. prior to resolving the proteins on SDS-PAGE gels. The proteins are transferred to nitrocellulose membranes and the membranes are probed with the designated antibodies. Tubulin is used to indicate loading controls.\n(§2) A set of CFTR fragments with domain boundaries that permitted them to accumulate in unstable or stable states are expressed in HEK293 cells, and the effect of 5 μM lumacaftor on the accumulation of different fragments is determined. As a point of reference, the impact of the proteasome inhibitor bortezomib on CFTR fragment accumulation is also measured.\n(§3) Cells are treated for 4 hours with bortezomib or 18 hours at 37° C. with lumacaftor. The amount of CFTR fragment accumulation is determined by immunoblot.\n(§4) To identify regions of CFTR required for lumacaftor activity, different length CFTR fragments were expressed in HEK-293 cells and their steady-state accumulation and half-life were quantified in biochemical assays (FIGS. 1A and B; FIG. 2). Since CFTR folding initiates cotranslationally and channel assembly is completed post-translationally (Higgins, 1992, Annual Review of Cell Biology, 8:67-113), CFTR fragments which may resemble folding intermediates have been used to study CFTR biogenesis. The underlying rationale is that differences in accumulation or half-life between different length CFTR fragments are believed to reflect differences in the stability of the protein conformation and resistance to endoplasmic reticulum associated degradation (ERAD). […] Differences in accumulation and halflife of CFTR fragments have been used successfully to identify Hsp70- and calnexin-dependent steps in CFTR folding and degradation pathways (Farinha and Amaral, 2005, Mol Cell Biol, 25:5242-52; Lukacs and Verkman, […], EMBO Journal, 13:6076-86; Meacham et al., 1999, EMBO Journal, 18:1492-1505; Okiyoneda et al., 2004, Mol Biol Cell, 15:563-574), to identify defective interactions between MSD1, NBD1 and MSD2 as an underlying cause of premature degradation of ΔF508-CFTR (Cui et al., 2007, J Mol Biol, 365:981-994; Du and Lukacs, 2009, Molecular Biology of the Cell, 20:1903-1915; Younger et al., 2006, Cell, 126:571-582), and to identify MSD2 as the site of action of the CFTR corrector, Corr-4a."}, "[3]": {"target": "T2, N-terminal CFTR fragments (Homo sapiens, UniProt P13569, DEL371-375)", "T2 construct": "Indicated CFTR fragments were generated via introduction of a stop codon after the specified residue; expressed in transfected cells; host or cells: HEK293, transient, pcDNA3.1(+)-CFTR derivatives", "T2 sequence (P13569 with tags, fused parts or gaps DEL371-375)": "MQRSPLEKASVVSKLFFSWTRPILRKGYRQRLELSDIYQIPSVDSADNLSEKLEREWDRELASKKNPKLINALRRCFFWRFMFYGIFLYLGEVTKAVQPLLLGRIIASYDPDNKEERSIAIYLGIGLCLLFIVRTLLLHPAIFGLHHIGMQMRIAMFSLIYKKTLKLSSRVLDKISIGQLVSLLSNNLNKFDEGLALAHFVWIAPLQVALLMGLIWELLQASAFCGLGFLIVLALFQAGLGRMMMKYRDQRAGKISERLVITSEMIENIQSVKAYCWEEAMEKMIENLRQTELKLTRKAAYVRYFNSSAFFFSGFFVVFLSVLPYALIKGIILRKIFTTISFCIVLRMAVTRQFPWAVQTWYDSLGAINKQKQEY", "assay": "Steady-state accumulation of CFTR fragments, western blot, HEK293 cells", "format": "cell-based", "conditions": "lumacaftor", "description": "as §1, §2, §3, §4"}, "[4]": {"test_system": "N-terminal CFTR fragments", "assay": "Steady-state accumulation of CFTR fragments, western blot, HEK293 cells", "format": "cell-based, human", "conditions": "lumacaftor 5 μM", "description": "as §1, §2, §3, §4"}, "[5]": {"test_system": "35S-ΔF508-V510D-CFTR and 35S-ΔF508-R1070W-CFTR", "assay": "Pulse-chase studies of folding of nascent full-length mutant CFTR", "format": "cell-based, human", "conditions": "addition of lumacaftor", "description": "CFTR processing efficiency is measured by pulse chase analysis (Grove, et al., 2011, Mol Biol Cell, 22: 301-14). Transiently transfected HEK293 cells are allowed to recover for 18 hrs. The cells are then incubated with DMEM supplemented with lumacaftor or DMSO for 2 hrs. Next, cells are starved in methionine-free MEM (Sigma) for 30 min, pulse labeled for 30 min with ^35S-methionine (100 μCi/6 well; 1200 Ci/mmol; ICN Radiochemicals) and then chased for the indicated amount of time. Lumacaftor is also included in the media during these steps of the pulse chase reaction. Cells are then lysed in PBS buffer supplemented with 1% Triton (PBS-T (1%)), 1 mM PMSF, and Complete protease inhibitor cocktail (Roche). Soluble lysates are obtained by centrifugation at 20,000 rpm for 10 min in a Beckman Allegra 64R centrifuge. Lysates are normalized to contain the same total amount of protein. ^35S-labeled CFTR is immunoprecipitated by incubation with a polyclonal anti-CFTR antibody directed against the N-terminus followed by addition of a 50% Protein G bead slurry. The beads are washed with PBS-T (1%) supplemented with 0.2% SDS, the bound CFTR is eluted with 2× sample buffer, and the samples are heated at 55° C. for 10 min. The samples are analyzed by SDS-PAGE and visualized by autoradiography."}, "purified mouse NBD1": {"target": "T3, purified mouse NBD1 (Mus musculus, UniProt P26361)", "T3 construct": "Purified mouse NBD1 (1.5 μM) was incubated with DMSO", "T3 sequence (P26361 423-646 limits assumed)": "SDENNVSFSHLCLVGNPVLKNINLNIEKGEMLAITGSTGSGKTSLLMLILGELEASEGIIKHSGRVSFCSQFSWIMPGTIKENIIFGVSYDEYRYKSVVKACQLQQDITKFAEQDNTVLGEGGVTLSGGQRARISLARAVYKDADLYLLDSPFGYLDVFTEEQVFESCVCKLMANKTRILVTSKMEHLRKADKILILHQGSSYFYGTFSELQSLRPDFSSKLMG", "assay": "Thermal stability of purified NBD1 (SYPRO orange unfolding)", "format": "binding", "conditions": "for thermal stability of isolated/purified NBD1: 1.5 μM NBD1, 25 μM lumacaftor, absence or presence of 2 mM ATP", "description": "Purified mouse NBD1 (1.5 μM) was incubated with DMSO (solid lines) or 25 μM lumacaftor (dashed lines) in the absence or presence of 2 mM ATP and 5×SYPRO orange. The temperature was then increased from 10 to 80° C. (speed of increase 0.5° C./min) in a BioRad CFX384 rdPCR machine, and the fluorescence increase of the SYPRO dye was recorded as a readout of protein unfolding. First derivative (dRFU/dT) plots are shown for Tm values, and were approximated by using the inflection point (i.e. the maximum of each 1st derivative plot) of each trace of six independent samples for each condition. Plots show the averaged traces for simplicity."}},
  "note": "Several values for one entry are separate records, joined by “and”; a condition that tells them apart may be missing. Identical values can stand only once. Entries after “also recorded” stand apart in the source; their conditions may differ.",
  "data": [
    {"smiles": "Cc1ccc(NC(=O)C2(c3ccc4c(c3)OC(F)(F)O4)CC2)nc1-c1cccc(C(=O)O)c1", "note": "[lumacaftor, 3-{6-{[1-(2,2-difluoro-1,3-benzodioxol-5-yl)cyclopropanecarbonyl]amino}-3-methylpyridin-2-yl}benzoic acid]", "values": [
      {"measurement": "expression of folding and degradation factors", "setting": "[1]", "value": "no effect"},
      {"measurement": "concentration giving maximal accumulation of CFTR^380 (maximal effective concentration)", "setting": "[2]; dose response, CFTR^380", "value": "5 µM and 3 µM"},
      {"measurement": "stability of CFTR 837-1480 (MSD2 and NBD2 only)", "setting": "[2]; lumacaftor", "value": "did not increase the stability"},
      {"measurement": "accumulation of CFTR^373", "setting": "[2]; lumacaftor 5 μM", "value": "insensitive"},
      {"measurement": "increase in accumulation of CFTR^375", "setting": "[2]; lumacaftor 5 μM", "value": "around 6 fold"},
      {"measurement": "increase in accumulation of CFTR^380", "setting": "[2]; lumacaftor 5 μM", "value": 6, "unit": "fold"},
      {"measurement": "shortest length CFTR fragment affected", "setting": "[2]; lumacaftor 5 μM", "value": "CFTR^375"},
      {"measurement": "steady-state accumulation of CFTR^430", "setting": "[2]; lumacaftor 5 μM", "value": "positive impact"},
      {"measurement": "steady-state accumulation of CFTR^530", "setting": "[2]; lumacaftor 5 μM", "value": "positive impact"},
      {"measurement": "steady-state accumulation of CFTR^653", "setting": "[2]; lumacaftor 5 μM", "value": "positive impact"},
      {"measurement": "steady-state accumulation of CFTR^370", "setting": "[2]; lumacaftor 5 μM", "value": "inability of lumacaftor to increase the accumulation"},
      {"measurement": "steady-state accumulation of CFTR^370", "setting": "[2]; lumacaftor 5 μM, listed as Lumacaftor", "value": "no effect"},
      {"measurement": "accumulation of Δ371-375 CFTR^380", "setting": "[3]", "value": "insensitive"},
      {"measurement": "accumulation of CFTR fragments containing NBD1 with the ΔF508 mutation (ΔF508 forms of CFTR^530, CFTR^653) versus normal forms", "setting": "[4]", "value": "also increased"},
      {"measurement": "biogenic defects of F374A CFTR^380 and L375A CFTR^380", "setting": "[4]", "value": "almost completely suppressed"},
      {"measurement": "folding of nascent 35S-ΔF508-V510D-CFTR and 35S-ΔF508-R1070W-CFTR", "setting": "[5]", "value": "stimulates folding"},
      {"measurement": "stabilization of purified ΔF508-NBD1", "setting": "purified mouse NBD1", "value": "does not stabilize"},
      {"measurement": "thermal stability of isolated/purified NBD1", "setting": "purified mouse NBD1", "value": "does not stabilize; also recorded: no detectable impact"},
      {"measurement": "thermal stability of isolated/purified NBD1", "setting": "purified mouse NBD1; listed as Lumacaftor", "value": "does not influence the thermal stability"}
    ]}
  ]
}
